Results from US11141451B2, “Pharmaceutical composition and health functional food comprising oat extract avenanthramide C or derivative thereof as effective ingredient for prevention or treatment of neurodegenerative disease” (INDUSTRY FOUNDATION OF CHONNAM NATIONAL UNIVERSITY, priority 2016, dated 2021).

Columns and labels:
[1] = test system: long-term potentiation (LTP) in hippocampal slice of Tg2576 induced AD mouse; assay: LTP induction in hippocampal slice of Tg2576 induced AD mouse; format: cell-based; conditions: 7-month-old Tg2576 mouse hippocampal slice, 50 μM compound
Experimental: (§1) The mice of Example 1 were anesthetized and decapitated to excise brains. The extracted brains were kept in a cooled artificial cerebrospinal fluid (aCSF) (124 mM NaCl, 3 mM KCl, 26 mM NaHCO3, 2 mM CaCl2, 1 mM MgSO4, 10 mM Glucose, 1.25 mM NaH2PO4, and 2 mM CaCl2) saturated with 95% oxygen. Hippocampal slices were sampled from the brains, and the hippocampal slice samples were prepared with a thickness of 400 μm. Then, the hippocampal slice samples were recovered in the aCSF (124 mM NaCl, 3 mM KCl, 26 mM NaHCO3, 2 mM CaCl2, 1 mM MgSO4, 10 mM Glucose, 1.25 mM NaH2PO4, and 2 mM CaCl2) saturated with 95% oxygen at a temperature of 22 to 25° C. for 1 hour, and then used in the experiment.
(§2) For LTP induction, the hippocampal slice samples were located in a recording chamber, respectively, and then were observed by analyzing a field excitatory postsynaptic potential (fEPSP) by stimulation of Schaffer-Collateral fiber, while applying stimulations to the samples with 100 Hz every 200 ms, and the experiment was performed for 90 minutes. During the experiment, the aCSF was supplied by flowing with a rate of 2 to 3 ml/min at 30° C., and the obtained experimental results were compared using the ANOVA test known in the art. The obtained results are illustrated in FIGS. 1 to 7.
(§3) In order to examine effects of avenanthramide C according to the present invention on the LTD in a hippocampal slice of a 7-month-old Tg2576 induced AD mouse, an LTP comparison experiment was performed using a hippocampal slice of a gene manipulated mouse in the same method as Experimental Example 1, and the results thereof are illustrated in FIGS. 12A and 12B.
as §3, with “B methyl ester” for “C”, “performed in the same method as Experimental Example 1” for “performed”, “mouse,” for “mouse in the same method as Experimental Example 1,”, “16A” for “12A”, “16B. […]” for “12B.”

[2] = test system: long-term potentiation (LTP) in hippocampal slice of C57BL/6 mouse; assay: LTP induction (fEPSP, Schaffer-Collateral stimulation) in hippocampal slices treated with amyloid-β; format: cell-based
Experimental: as §1, §2
In order to examine effects of avenanthramide C methyl ester according to the present invention on the LTD in a hippocampal slice of a mouse, an LTP comparison experiment was performed in the same method as Experimental Example 1, and the results thereof are illustrated in FIGS. 14A to 14C.
An LTP comparison experiment was performed by treating the samples with amyloid-β and β-glucan in amounts as illustrated in Table 2 below two hours before the experiment by using the same method as in Experimental Example 1, except that β-glucan was used instead of avenanthramide C according to the present invention. The obtained results are illustrated in FIGS. 18 to 21.

[3] = test system: long-term potentiation (LTP) in hippocampal slice of 5×FAD induced AD mouse; assay: LTP induction in hippocampal slice of 5×FAD induced AD mouse; format: cell-based
Experimental: as §1
as §2, with “7. […]” for “7.”

GSK3β [4] = assay: GSK3β activity by western blotting in hippocampal slice of Tg2576 induced AD mouse; format: cell-based; conditions: 7-month-old Tg2576 mouse hippocampal slice, 50 μM compound, versus untreated
Experimental: as §1
(§4) Thereafter, RIPA [50 mM Tris-HCl (PH 7.5), 150 mM NaCl, 1% Nonidet P-40, 0.5% sodium deoxycholate, 0.1% SDS, 1 mM phenylmethylsulfonyl fluoride (PMSF), 1 mM DTT, and 2 μg of leupeptin and aprotinin, respectively, were dissolved therein. The crushed cells were centrifuged with 12,000 g at 4° C. for 20 minutes, and the resulting soluble fractions were denatured in a Laemmli buffer and subjected to sodium dodecyl sulfate-polyacrylamide gel electrophoresis (SDS-PAGE). After gel electrophoresis, the separated proteins were transferred to a polyvinylidene difluoride (PVDF) membrane using electroblotting. […]

GSK3β [5] = assay: GSK3β activity by western blotting (GSK3αβ and phosphorylated GSK3β S9) in hippocampal slices treated with amyloid-β; format: cell-based, mouse
Experimental: as §1
Thereafter, RIPA [50 mM Tris-HCl (PH 7.5), 150 mM NaCl, 1% Nonidet P-40, 0.5% sodium deoxycholate, 0.1% SDS, 1 mM phenylmethylsulfonyl fluoride (PMSF), 1 mM DTT, and 2 μg of leupeptin and aprotinin, respectively, were dissolved therein. The crushed cells were centrifuged with 12,000 g at 4° C. for 20 minutes, and the resulting soluble fractions were denatured in a Laemmli buffer and subjected to sodium dodecyl sulfate-polyacrylamide gel electrophoresis (SDS-PAGE). After gel electrophoresis, the separated proteins were transferred to a polyvinylidene difluoride (PVDF) membrane using electroblotting. The membrane was blocked with AMRESCO, RAPIDBLOCK solution (pH 7) and subjected to blotting by using enhanced chemiluminescence (ECL). For blotting, an antibody for GSK3αβ and an antibody for phosphorylated GSK3β (S9) were used. The obtained results are illustrated in FIGS. 8 and 9. GSK3β is an enzyme whose activity is inhibited by the phosphorylation of serine residue 9, and is known as a modulator of a wide range of functions such as energy metabolism, cell proliferation, apoptosis and the like.
In order to examine effects of avenanthramide C methyl ester according to the present invention on activity of GSK3β in a hippocampal slice of a mouse, the same western blotting as Experimental Example 2 was performed, and the results thereof are illustrated in FIG. 15.

GSK3β [6] = assay: GSK3β activity by western blotting in hippocampal slice of 5×FAD induced AD mouse; format: cell-based; conditions: 4-month-old 5×FAD mouse hippocampal slice, 50 μM compound, versus untreated
Experimental: as §1, §4

[7] = hippocampal slice treated with 500 nM amyloid-β and 50 μM compound together
[8] = hippocampal slice treated with 500 nM amyloid-β and 500 μM compound together

COc1cc(/C=C/C(=O)Nc2ccc(O)cc2C(=O)O)ccc1O [avenanthramide B]
LTP induction [1]: slightly induced

β-glucan [reference compound]
LTP induction ([2]; hippocampal slice treated with 500 nM amyloid-β and 80 μg/ml β-glucan together): not induced | LTP induction ([2]; hippocampal slice treated with only 80 μg/ml β-glucan, no amyloid-β): induced | LTP induction ([3]; induced AD mouse hippocampal slice, 80 μg/ml β-glucan): not induced

O=C(/C=C/c1ccc(O)cc1)Nc1ccc(O)cc1C(=O)O [avenanthramide A]
LTP induction [1]: induced

O=C(/C=C/c1ccc(O)c(O)c1)Nc1ccc(O)cc1C(=O)O [avenanthramide C]
activity of GSK3β (GSK3β [4]): more inhibited | LTP induction ([2]; hippocampal slice treated with 500 nM amyloid-β and 10 μM compound together): not induced | LTP induction [2, 7]: induced | LTP induction [2, 8]: induced | LTP induction ([2]; hippocampal slice treated with only 50 μM compound, no amyloid-β): induced | LTP induction ([2]; hippocampal slice treated with only 500 μM compound, no amyloid-β): induced | toxicity in hippocampal slice (LTP experiment) ([2]; only 500 μM compound, no amyloid-β): not exhibiting toxicity | LTP induction ([3]; 4-month-old 5×FAD mouse hippocampal slice, 50 μM compound): induced | LTP induction [1]: induced | toxicity in hippocampal slice (GSK3β experiment) (GSK3β [5]; 500 nM amyloid-β and 500 μM compound together): without toxicity | activity of GSK3β (GSK3β [5]; [7]): inhibiting the activity of GSK3β | activity of GSK3β (GSK3β [5]; [8]): inhibited | activity of GSK3β (GSK3β [6]): more inhibited

COC(=O)c1cc(O)ccc1NC(=O)/C=C/c1ccc(O)c(O)c1 [avenanthramide C methyl ester]
LTP induction [2, 7]: induced | activity of GSK3β (GSK3β [5]; [7]): inhibited
